Experimental data reported in patent US11214803B2, “Modulators of YAP1 expression” (Ionis Pharmaceuticals, Inc., priority 2019, dated 2022).
Strand notation (5' to 3'): a small letter for the sugar, then the base; units joined by * are phosphorothioate-linked, units joined directly phosphodiester-linked; [ ] holds rarer units or linkages, { } end groups; capitals alone tell only the bases. k = constrained ethyl (cEt); [5mC] = 5-methylcytosine; d = 2'-deoxy (DNA)

Experiments:
Type in all cases: cell-based
Yap1 mRNA [1] = assay: Dose-dependent inhibition of human Yap1 in A-431 cells (Example 8, 10,000 cells per well, RTS4814); conditions: A-431 cells; for IC50: Yap1 mRNA
Outline: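 A-431 cells (10,000/well) dosed with modified oligonucleotides by free uptake; Yap1 mRNA measured ~48 h later with primer-probe set RTS4814, normalized to total RNA (RIBOGREEN). Values are % of untreated control; IC50 from linear regression on log/linear plot.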

Yap1 mRNA [2] = assay: Antisense inhibition of human Yap1 in A-431 cells by cEt gapmers, single dose (Example 4, RTS4814)
Outline: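 A-431 cells took up 3-10-3 cEt gapmers (16-mer, full phosphorothioate, 5-methylcytosines) by free uptake at 2,000 nM for about 48 h. Yap1 mRNA was quantified by qRT-PCR, normalized to total RNA (RIBOGREEN), and reported as % of untreated control.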

Yap1 mRNA [3] = assay: Antisense inhibition of human Yap1 in SNU-449 cells by modified oligonucleotides, single dose (Example 5, RTS36584); conditions: Yap1 mRNA, percent of untreated control; modified oligonucleotides targeting SEQ ID NO: 1 and 2; Table 47
Outline: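 Free uptake, 2,000 nM, ~48 h, SNU-449 at 10,000 cells/well. Read-out: qRT-PCR (RTS36584), RIBOGREEN-normalised, expressed as % UTC. Asterisk = oligo hits amplicon region.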

[4] = Yap1 mRNA remaining as percent of untreated control, 3-10-3 cEt gapmers, A-431 cells, Table 36
[5] = Yap1 mRNA remaining as percent of untreated control, 3-10-3 cEt gapmers, A-431 cells, Table 37

Row | Substance | % UTC (Yap1 mRNA) (Yap1 mRNA [1]; 31.3 nM) [% UTC] | % UTC (Yap1 mRNA) (Yap1 mRNA [1]; 125.0 nM) [% UTC] | % UTC (Yap1 mRNA) (Yap1 mRNA [1]; 500.0 nM) [% UTC] | % UTC (Yap1 mRNA) (Yap1 mRNA [1]; 2000.00 nM) [% UTC] | IC50 (Yap1 mRNA [1]) [nM] | YAP1 (% UTC) (Yap1 mRNA [2]; [4]) | YAP1 (% UTC) (Yap1 mRNA [2]; [5]) | YAP1 (% UTC) (Yap1 mRNA [2]; Table 16, A-431 cells, 5,000 cells per well, free uptake, 2,000 nM, approximately 48 hours, RTS4814, normalized to RIBOGREEN, Yap1 mRNA relative to untreated control cells) | YAP1 (% UT) (Yap1 mRNA [3]) | YAP1 (% UTC) (Yap1 mRNA [2]; Table 15, A-431 cells, 5,000 cells per well, free uptake, 2,000 nM, approximately 48 hours, RTS4814, normalized to RIBOGREEN, Yap1 mRNA relative to untreated control, * = targets amplicon region of primer probe set)
1 | 1076022 (kT*kA*kA*dT*dT*dA*dG*dA*dT*dG*d[5mC]*dT*dG*kA*k[5mC]*kA; antisense) [compound 1076022] | 63 | 28 | 8 | 5 | 40 | 2 | – | – | – | –
2 | 1074487 (kA*kG*kA*dT*dT*d[5mC]*dA*d[5mC]*dT*dA*dA*dT*dA*kT*kG*kG; antisense) [compound 1074487] | 73 | 28 | 11 | 6 | 100 | – | 7 | – | – | –
3 | 1075222 (kG*kT*kA*dT*dT*dT*dG*dG*dA*d[5mC]*dA*dA*d[5mC]*kT*k[5mC]*kT; antisense) [compound 1075222] | 75 | 30 | 8 | 5 | 100 | 3 | – | – | – | –
4 | 1074454 (kT*kG*kT*dG*dA*d[5mC]*dT*dA*dA*dT*dG*dA*dT*kA*kG*k[5mC]; antisense) [compound 1074454] | 39 | 9 | 3 | 3 | < 20 | 1 | – | – | – | –
5 | 1074754 (k[5mC]*kT*kT*dT*dT*dA*d[5mC]*dA*dT*dT*dA*dG*dG*kA*kA*k[5mC]) [Compound 1074754] | – | – | – | – | – | – | – | 11 | 69 % UT | –
6 | 1075766 (kG*kG*kA*dG*dA*dA*d[5mC]*dA*d[5mC]*dA*dA*dG*dA*kG*kG*k[5mC]; antisense) [compound 1075766] | 56 | 21 | 11 | 8 | < 20 | 5 | – | – | – | –
7 | 1076481 (antisense k[5mC]*kT*kA*dA*dG*dT*dA*dA*dG*dG*dT*dT*dT*k[5mC]*k[5mC]*k[5mC]) [Compound 1076481] | – | – | – | – | – | – | – | – | ^mCksTksAksAdsGdsTdsAdsAdsGdsGds13 % UT | 1
8 | 1074775 (kG*kG*kT*dT*dT*dA*dT*dT*dG*dT*dA*dA*dA*kA*kG*k[5mC]; antisense) [compound 1074775] | 26 | 5 | 2 | 2 | < 20 | – | 3 | – | – | –
9 | 1076471 (k[5mC]*kA*kT*dT*dA*dG*dA*d[5mC]*dT*dA*dG*dG*d[5mC]*kT*kT*kT; antisense) [compound 1076471] | 64 | 29 | 9 | 5 | 50 | – | 5 | – | – | –
10 | 1074678 (antisense kT*kA*kA*dT*d[5mC]*dT*dG*dT*dG*dG*d[5mC]*dT*dA*k[5mC]*kT*kG) [compound 1074678] | 73 | 37 | 16 | 10 | 100 | 7 | – | – | – | –
11 | 1076439 (k[5mC]*kT*kT*dA*dT*dA*dT*dG*dG*dT*dT*dT*dT*kG*kT*kG) [compound 1076439] | 48 | 13 | 6 | 5 | < 20 | – | 4 | – | – | –
12 | 1076534 (kA*k[5mC]*kT*dA*dT*dA*dA*dA*dG*d[5mC]*dA*dA*dT*kG*k[5mC]*kG; antisense) [compound 1076534] | 88 | 48 | 20 | 10 | 200 | 4 | – | – | – | –
